Results from patent publication US10343992B2, “1-cyano-pyrrolidine compounds as USP30 inhibitors” (MISSION THERAPEUTICS LIMITED, priority 2015, dated 2019).

Each compound was assayed against USP30 (Homo sapiens (Human), UniProt Q70CQ3) (assay: USP30 biochemical FP or FI IC50 assay). Settings: read-out: IC50 range.
Protocol: USP30 Biochemical IC50 Assay
Dilution plates were prepared at 21 times the final concentration (2100 μM for a final concentration of 100 μM) in 50% DMSO in a 96-well polypropylene V-bottom plate (Greiner #651201). A typical 8-point dilution series would be 100, 30, 10, 3, 1, 0.3, 0.1, 0.03 μM final. Reactions were performed in duplicate in black 384 well plates (small volume, Greiner 784076) in a final reaction volume of 21 μl. Either 1 μl of 50% DMSO or diluted compound was added to the plate. USP30 was diluted in reaction buffer (40 mM Tris, pH 7.5, 0.005% Tween 20, 0.5 mg/ml BSA, 5 mM—beta-mercaptoethanol) to the equivalent of 0.05 μl/well and 10 μl of diluted USP30 was added to the compound. Enzyme and compound were incubated for 30 min at room temp. Reactions were initiated by the addition of 50 nM of TAMRA labelled peptide linked to ubiquitin via an iso-peptide bond as fluorescence polarisation substrate. Reactions were read immediately after addition of substrate and following a 2 hr incubation at room temperature. Readings were performed on a Pherastar Plus (BMG Labtech). λ Excitation 540 nm; λ Emission 590 nm.
USP30 Biochemical Fluorescence Intensity IC50 Assay
Dilution plates were prepared at 21 times the final concentration (2100 μM for a final concentration of 100 μM) in 50% DMSO in a 96-well polypropylene V-bottom plate (Greiner #651201). A typical 8-point dilution series would be 100, 30, 10, 3, 1, 0.3, 0.1, 0.03 μM final. Reactions were performed in duplicate in black 384 well plates (small volume, Greiner 784076) in a final reaction volume of 21 μl.
Either 1 μl of 50% DMSO or diluted compound was added to the plate. USP30 was diluted in reaction buffer (40 mM Tris, pH 7.5, 0.005% Tween 20, 0.5 mg/ml BSA, 5 mM—beta-mercaptoethanol) to the equivalent of 0.001 μl/well and 10 μl of diluted USP30 was added to the compound. Enzyme and compound were incubated for 30 min at room temp. Reactions were initiated by the addition of Ubiquitin-Rhodamine 110 (U-555; Boston Biochem) at a final concentration of 100 nM. Reactions were read immediately after addition of substrate and following a 2 h incubation at room temperature. Readings were performed on a Pherastar Plus (BMG Labtech). λ Excitation 487 nm; λ Emission 535 nm.

Chain of USP30 (Q70CQ3 57-517): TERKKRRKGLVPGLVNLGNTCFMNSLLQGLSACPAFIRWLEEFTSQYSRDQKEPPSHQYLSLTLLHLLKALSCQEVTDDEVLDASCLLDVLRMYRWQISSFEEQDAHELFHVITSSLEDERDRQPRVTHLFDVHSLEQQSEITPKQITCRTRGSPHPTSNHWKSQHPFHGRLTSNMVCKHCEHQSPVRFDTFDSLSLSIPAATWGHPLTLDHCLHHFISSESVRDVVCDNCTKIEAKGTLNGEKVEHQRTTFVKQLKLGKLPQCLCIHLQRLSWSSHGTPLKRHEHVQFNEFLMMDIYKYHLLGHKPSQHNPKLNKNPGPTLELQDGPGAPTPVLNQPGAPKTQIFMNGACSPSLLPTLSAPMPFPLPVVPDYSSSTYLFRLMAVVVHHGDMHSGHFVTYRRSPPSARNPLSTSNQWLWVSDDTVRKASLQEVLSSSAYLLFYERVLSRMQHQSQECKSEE

SMILES | IC50 [µM]
N#CN1CC[C@@H](NC(=O)c2ccc(-c3ccn4nccc4n3)cc2F)C1 [Example 172, (R)-N-(1-cyanopyrrolidin-3-yl)-2-fluoro-4-(pyrazolo[1,5-a]pyrimidin-5-yl)benzamide] | < 0.1
N#CN1CC[C@@H](N2CCN(c3nc(-c4ccccc4)cs3)C2=O)C1 [Example 208, (R)-3-(2-oxo-3-(4-phenylthiazol-2-yl)imidazolidin-1-yl)pyrrolidine-1-carbonitrile] | 0.1 to 1
N#CN1CCC(NC(=O)c2cccc(N3CCc4ccccc4C3)n2)C1 (racemic) [Example 25, N-(1-cyanopyrrolidin-3-yl)-6-(3,4-dihydroisoquinolin-2(1H)-yl)picolinamide] | 1 to 10
Cc1nn(C)cc1-c1ccn2c(C(=O)N(C)[C@@H]3CCN(C#N)C3)cnc2c1 [Example 163, (R)-N-(1-cyanopyrrolidin-3-yl)-7-(1,3-dimethyl-1H-pyrazol-4-yl)-N-methylimidazo[1,2-a]pyridine-3-carboxamide] | 0.1 to 1
N#CN1CC[C@@H](NC(=O)c2ccc(Nc3ncccn3)c(F)c2)C1 [Example 142, (R)-N-(1-cyanopyrrolidin-3-yl)-3-fluoro-4-(pyrimidin-2-ylamino)benzamide] | < 0.1
Cc1cc(-c2cc(C(=O)N(C)[C@@H]3CCN(C#N)C3)on2)ccn1 [Example 273, (R)—N-(1-cyanopyrrolidin-3-yl)-N-methyl-3-(2-methylpyridin-4-yl)isoxazole-5-carboxamide] | 0.1 to 1
CN(C(=O)Nc1ccnc(N2Cc3ccccc3C2)c1)[C@@H]1CCN(C#N)C1 [Example 231, (R)-1-(1-cyanopyrrolidin-3-yl)-3-(2-(isoindolin-2-yl)pyridin-4-yl)-1-methylurea] | 0.1 to 1
COc1cc(C(=O)N2CC[C@@H]3CN(C#N)C[C@@H]32)ccc1-c1cnn(C)c1 (racemic) [Example 60, rac-(3aR,6aR)-1-(3-methoxy-4-(1-methyl-1H-pyrazol-4-yl)benzoyl)hexahydropyrrolo[3,4-b]pyrrole-5(1H)-carbonitrile] | 1 to 10
Cc1cn(-c2ccc(C(=O)N(C)[C@@H]3CCN(C#N)C3)cc2F)cn1 [Example 224, (R)-N-(1-cyanopyrrolidin-3-yl)-3-fluoro-N-methyl-4-(4-methyl-1H-imidazol-1-yl)benzamide] | 0.1 to 1
Cc1nn(C)cc1-c1ccc2nc(C(=O)N[C@@H]3CCN(C#N)C3)c(F)n2c1 [Example 170, (R)-N-(1-cyanopyrrolidin-3-yl)-6-(1,3-dimethyl-1H-pyrazol-4-yl)-3-fluoroimidazo[1,2-a]pyridine-2-carboxamide] | 0.1 to 1
Cc1cn(-c2ccc(C(=O)N[C@@H]3CCN(C#N)C3)c(F)c2)cn1 [Example 75, (R)—N-(1-cyanopyrrolidin-3-yl)-2-fluoro-4-(4-methyl-1H-imidazol-1-yl)benzamide] | 0.1 to 1
CN(C(=O)Nc1ccc(Cl)cc1Cl)C1CCN(C#N)C1 (stereo not drawn) [Example 260, 1-(1-cyanopyrrolidin-3-yl)-3-(2,4-dichlorophenyl)-1-methylurea] | 0.1 to 1
Cc1noc(C)c1-c1ccc2cc(C(=O)N[C@@H]3CCN(C#N)C3)[nH]c2c1 [Example 128, (R)-N-(1-cyanopyrrolidin-3-yl)-6-(3,5-dimethylisoxazol-4-yl)-1H-indole-2-carboxamide] | < 0.1
N#CN1CCC(NC(=O)c2ccc(N3CCC(Oc4ccccc4)CC3)nc2)C1 (stereo not drawn) [Example 22, N-(1-cyanopyrrolidin-3-yl)-6-(4-phenoxypiperidin-1-yl)nicotinamide] | 0.1 to 1
N#CN1CCC(NC(=O)c2ccnc(N3CCc4ccccc4C3)c2)C1 (stereo not drawn) [Example 27, N-(1-cyanopyrrolidin-3-yl)-2-(3,4-dihydroisoquinolin-2(1H)-yl)isonicotinamide] | 0.1 to 1
CCN(C(=O)c1ccc(-c2cnn(C)c2)c(F)c1)[C@@H]1CCN(C#N)C1 [Example 206, (R)-N-(1-cyanopyrrolidin-3-yl)-N-ethyl-3-fluoro-4-(1-methyl-1H-pyrazol-4-yl)benzamide] | 0.1 to 1
Cc1nn(C)cc1-c1cnc(C(=O)N[C@@H]2CCN(C#N)C2)c(F)c1 [Example 122, (R)-N-(1-cyanopyrrolidin-3-yl)-5-(1,3-dimethyl-1H-pyrazol-4-yl)-3-fluoropicolinamide] | 0.1 to 1
N#Cc1cccc(-c2ccc3nc(C(=O)N[C@@H]4CCN(C#N)C4)c(F)n3c2)c1 [Example 167, (R)-6-(3-cyanophenyl)-N-(1-cyanopyrrolidin-3-yl)-3-fluoroimidazo[1,2-a]pyridine-2-carboxamide] | < 0.1
N#CN1CC[C@@H](NC(=O)N2CC(c3ccn(-c4ccccc4)n3)C2)C1 [Example 234, (R)-N-(1-cyanopyrrolidin-3-yl)-3-(1-phenyl-1H-pyrazol-3-yl)azetidine-1-carboxamide] | < 0.1
COc1c(-c2cnn(C)c2)ccc(C(=O)N[C@@H]2CCN(C#N)C2)c1F [Example 115, (R)-N-(1-cyanopyrrolidin-3-yl)-2-fluoro-3-methoxy-4-(1-methyl-1H-pyrazol-4-yl)benzamide] | 0.1 to 1
Cn1ncc2cc(-c3ccc(C(=O)N[C@@H]4CCN(C#N)C4)c(F)c3)ccc21 [Example 86, (R)-N-(1-cyanopyrrolidin-3-yl)-2-fluoro-4-(1-methyl-1H-indazol-5-yl)benzamide] | < 0.1
N#CN1CC[C@@H](NC(=O)c2ccc(-c3ccccc3)cc2)C1 [Example 35, (R)-N-(1-cyanopyrrolidin-3-yl)-[1,1′-biphenyl]-4-carboxamide] | < 0.1
N#Cc1cccc(-c2ccn3c(C(=O)N[C@@H]4CCN(C#N)C4)cnc3c2)c1 [Example 160, (R)-7-(3-cyanophenyl)-N-(1-cyanopyrrolidin-3-yl)imidazo[1,2-a]pyridine-3-carboxamide] | < 0.1
Cn1cc(-c2ccc3[nH]c(C(=O)N[C@@H]4CCN(C#N)C4)cc3c2)cn1 [Example 130, (R)-N-(1-cyanopyrrolidin-3-yl)-5-(1-methyl-1H-pyrazol-4-yl)-1H-indole-2-carboxamide] | < 0.1
CCn1cc(-c2ccc3nc(C(=O)N[C@@H]4CCN(C#N)C4)c(F)n3c2)cn1 [Example 169, (R)-N-(1-cyanopyrrolidin-3-yl)-6-(1-ethyl-1H-pyrazol-4-yl)-3-fluoroimidazo[1,2-a]pyridine-2-carboxamide] | 0.1 to 1
Cc1cc(C(=O)N[C@@H]2CCN(C#N)C2)nn1C(C)c1ccccc1 (stereo partly drawn) [Example 150, N-((R)-1-cyanopyrrolidin-3-yl)-5-methyl-1-(1-phenylethyl)-1H-pyrazole-3-carboxamide] | 0.1 to 1
N#CN1CCC(NC(=O)c2cc(-c3ccccc3)nc3ccccc23)C1 (racemic) [Example 17, N-(1-cyanopyrrolidin-3-yl)-2-phenylquinoline-4-carboxamide] | 1 to 10
Cn1cc(-c2ccc(F)c(C(=O)N[C@@H]3CCN(C#N)C3)c2)cn1 [Example 107, (R)-N-(1-cyanopyrrolidin-3-yl)-2-fluoro-5-(1-methyl-1H-pyrazol-4-yl)benzamide] | 0.1 to 1
CN(C(=O)Nc1ccc(C(F)(F)F)nc1)[C@@H]1CCN(C#N)C1 [Example 266, (R)-1-(1-cyanopyrrolidin-3-yl)-1-methyl-3-(6-(trifluoromethyl)pyridin-3-yl)urea] | 0.1 to 1
CN(C(=O)Nc1ccc(C(F)(F)F)cc1)C1CCN(C#N)C1 (stereo not drawn) [Example 261, 1-(1-cyanopyrrolidin-3-yl)-1-methyl-3-(4-(trifluoromethyl)phenyl)urea] | 0.1 to 1
